This is an account of results in publication PMC8552062, “Contributions of UDP-Glucuronosyltransferases to Human Hepatic and Intestinal Metabolism of Ticagrelor and Inhibition of UGTs and Cytochrome P450 Enzymes by Ticagrelor and its Glucuronidated Metabolite” (Frontiers in Pharmacology, 2021).

Where “and” joins values, the source holds several entries; their conditions need not be identical. Equal entries are not always repeated.

Type in all cases: in vitro ADME
For one data set, the target named is T1, UGT1A6 (Homo sapiens, UniProt P19224).
T1 sequence (P19224 27-532): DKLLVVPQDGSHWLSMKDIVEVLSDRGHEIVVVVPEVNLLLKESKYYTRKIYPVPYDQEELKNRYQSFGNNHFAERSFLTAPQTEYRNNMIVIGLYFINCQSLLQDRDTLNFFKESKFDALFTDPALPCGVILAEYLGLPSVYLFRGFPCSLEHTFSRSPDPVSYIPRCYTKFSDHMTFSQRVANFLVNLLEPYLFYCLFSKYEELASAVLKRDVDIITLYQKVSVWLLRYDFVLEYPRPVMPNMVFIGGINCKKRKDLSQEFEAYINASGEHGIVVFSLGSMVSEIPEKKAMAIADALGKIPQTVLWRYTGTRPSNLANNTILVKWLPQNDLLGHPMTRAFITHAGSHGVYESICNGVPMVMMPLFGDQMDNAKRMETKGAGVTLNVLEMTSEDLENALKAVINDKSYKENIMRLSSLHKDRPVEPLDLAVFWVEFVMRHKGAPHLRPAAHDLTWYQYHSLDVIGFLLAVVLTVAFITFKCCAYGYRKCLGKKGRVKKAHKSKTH
Put plainly: Ticagrelor glucuronidation screen, recombinant human UGT1A6. Also noted: purchased BD Gentest; host or cells: baculovirus-infected insect cells. The settings on record: 10 μM ticagrelor. The protocol: (§1) Ticagrelor glucuronidation was investigated in an in vitro incubation system by using HLM, HIM, and recombinant human UGTs. The incubation system consisted of enzyme sources (HLM, HIM, or human recombinant UGTs), various concentrations of ticagrelor (dissolved in 50% methanol, 1% v/v, 1, 2, 5, 10, 20, 50, 100, 200, 500 μM of final concentration), alamethicin (50 μg/mg protein), 5 mM MgCl2, 100 mM tris-HCL buffer (pH 7.4), and 5 mM UDPGA in a total volume of 100 μl. Alamethicin is a pore-forming polypeptide used to activate UGTs in HLM and HIM ([Fisher et al., 2000]). Preliminary studies were conducted to determine the optimal protein concentrations and incubation times. Linear conditions of ticagrelor-O-Glu formation from ticagrelor, i.e., HLM, 0.2 mg of protein/ml and 60 min, HIM, 0.2 mg of protein/ml and 60 min, and recombinant human UGTs, 0.2 mg of protein/ml and 60 min were selected. The incubation mixture without UDPGA was placed on ice for 15 min to activate UGT by alamethicin. After pre-incubation for 5 min at 37°C, the reactions were started by the addition of UDPGA. After another 60 min of incubation at 37°C, the reaction was terminated by adding 100 μl of acetonitrile containing internal standard (diazepam). The mixture vortexed for 2 min and then centrifuged at 14,000 rpm for 10 min at 4°C. […]

In data set [1] the test system is human liver microsomes (HLM). Put plainly: Ticagrelor glucuronidation kinetics in pooled HLM. The protocol:
Ticagrelor glucuronidation was investigated in an in vitro incubation system by using HLM, HIM, and recombinant human UGTs. The incubation system consisted of enzyme sources (HLM, HIM, or human recombinant UGTs), various concentrations of ticagrelor (dissolved in 50% methanol, 1% v/v, 1, 2, 5, 10, 20, 50, 100, 200, 500 μM of final concentration), alamethicin (50 μg/mg protein), 5 mM MgCl2, 100 mM tris-HCL buffer (pH 7.4), and 5 mM UDPGA in a total volume of 100 μl. Alamethicin is a pore-forming polypeptide used to activate UGTs in HLM and HIM ([Fisher et al., 2000]). Preliminary studies were conducted to determine the optimal protein concentrations and incubation times. Linear conditions of ticagrelor-O-Glu formation from ticagrelor, i.e., HLM, 0.2 mg of protein/ml and 60 min, HIM, 0.2 mg of protein/ml and 60 min, and recombinant human UGTs, 0.2 mg of protein/ml and 60 min were selected. The incubation mixture without UDPGA was placed on ice for 15 min to activate UGT by alamethicin. After pre-incubation for 5 min at 37°C, the reactions were started by the addition of UDPGA. After another 60 min of incubation at 37°C, the reaction was terminated by adding 100 μl of acetonitrile containing internal standard (diazepam). The mixture vortexed for 2 min and then centrifuged at 14,000 rpm for 10 min at 4°C. The resulting supernatant was injected into a liquid chromatography tandem mass spectrometry (LC-MS/MS, Applied Biosystems/MDS Sciex, Foster City, CA) system for the detection of ticagrelor-O-Glu.
Kinetic analyses were performed using the mean values of triplicate determinations with either pooled HLM, HIM, or recombinant human UGTs. All data were analyzed by nonlinear regression analysis using the GraphPad Prism 6 (GraphPad Software Inc., CA, United States). Michaelis-Menten kinetics (Eq. 1) or substrate inhibition kinetics (Eq. 2) ([Houston and Kenworthy, 2000]) were tested to determine the optimal model for describing the data. […] Intrinsic clearance (CLint) was calculated by dividing Vmax by Km.

Another data set concerns the target T2, UGT1A4 (Homo sapiens, UniProt P22310).
T2 sequence (P22310 29-534): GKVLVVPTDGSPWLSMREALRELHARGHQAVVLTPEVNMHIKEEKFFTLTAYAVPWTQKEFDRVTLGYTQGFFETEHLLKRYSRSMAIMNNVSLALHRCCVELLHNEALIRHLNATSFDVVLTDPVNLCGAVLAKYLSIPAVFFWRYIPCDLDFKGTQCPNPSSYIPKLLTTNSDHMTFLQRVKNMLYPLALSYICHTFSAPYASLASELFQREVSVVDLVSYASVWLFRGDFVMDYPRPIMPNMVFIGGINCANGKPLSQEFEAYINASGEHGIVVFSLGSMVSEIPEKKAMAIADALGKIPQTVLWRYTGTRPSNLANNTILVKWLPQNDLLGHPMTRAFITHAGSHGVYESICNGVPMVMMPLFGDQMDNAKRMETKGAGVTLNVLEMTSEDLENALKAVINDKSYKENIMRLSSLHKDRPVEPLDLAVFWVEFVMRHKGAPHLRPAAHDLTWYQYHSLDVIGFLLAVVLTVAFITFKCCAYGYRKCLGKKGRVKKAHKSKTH
Put plainly: Ticagrelor glucuronidation by recombinant human UGT1A4. Details: purchased BD Gentest; host or cells: baculovirus-infected insect cells. The settings on record: recombinant human UGT1A4, pH 7.4. The protocol:
as §1, with “alamethicin.” for “alamethicin. After pre-incubation for 5 min at 37°C, the reactions were started by the addition of UDPGA. After another 60 min of incubation at 37°C, the reaction was terminated by adding 100 μl of acetonitrile containing internal standard (diazepam). The mixture vortexed for 2 min and then centrifuged at 14,000 rpm for 10 min at 4°C.”
Kinetic analyses were performed using the mean values of triplicate determinations with either pooled HLM, HIM, or recombinant human UGTs. All data were analyzed by nonlinear regression analysis using the GraphPad Prism 6 (GraphPad Software Inc., CA, United States). […] Intrinsic clearance (CLint) was calculated by dividing Vmax by Km.

One may read the Km as the concentration of substrate that gives half-maximal velocity. Broadly, the microsomal CLint is the capacity of the preparation to metabolise the compound, expressed as a volume cleared per time. For the compound `CCCSc1nc(N[C@@H]2C[C@H]2c2ccc(F)c(F)c2)c2nnn([C@@H]3C[C@H](OCCO)[C@@H](O)[C@H]3O)c2n1` [Ticagrelor], the “glucuronidation activity for ticagrelor” value at UGT1A6 is “no glucuronidation activities”. Also, in data set [1] (pooled HLM), the Ksi was 1,343 μM and 1,343.0 μM; the Vmax was 8.03 pmol·min^−1·mg protein^−1. In addition, the Michaelis constant (Km) in data set [1] (pooled HLM 0.2 mg protein/ml, 60 min, substrate inhibition kinetics) amounted to 5.65 µM. Also, the microsomal CLint at UGT1A4 is 0.04 µL/min/mg.
